Results on one compound are retold here after paper PMC3938571, “Modulation of Basophils' Degranulation and Allergy-Related Enzymes by Monomeric and Dimeric Naphthoquinones” (PLoS ONE, 2014).

Test [1] relates to RBL-2H3 cells. Put plainly: IgE/antigen-induced RBL-2H3 basophils' degranulation (β-hexosaminidase release). The format is cell-based, rat. Conditions: Rattus norvegicus, RBL-2H3; 5 µM; maximal inhibition, mean±SEM; read-out: Degranulation inhibition (%) IgE/antigen (decrease of β-hexosaminidase release). The protocol:
RBL-2H3 cells were seeded at 3.0×10^5 cells/mL in 24-wells plate (1 mL/well), and assayed after 24h at near-confluent stage (∼90%). Two different degranulation stimuli were used: calcium ionophore A23187 500 ng/mL (1 µM) and an immunologic stimulus (100 ng/mL IgE anti-DNP followed by 100 ng/mL DNP-BSA) that we refer to as IgE/antigen (Fig. 2). […] Thus, the ability of naphthoquinones to reduce β-hexosaminidase release was quantified for both stimuli, whereas effects upon histamine were only quantified with the A23187 stimulus, given the low histamine release and poor signal to noise achieved with IgE/antigen.
When the IgE/antigen was used as stimulus, cells were incubated during 16 h with 100 ng/ml IgE anti-DNP and with individual naphthoquinones diluted in culture medium. After washing twice with Dulbecco's phosphate buffered saline (DPBS), cells were treated for 1 h, at 37°C, with 100 ng/ml DNP-BSA and with individual naphthoquinones diluted in EBSS supplemented with 0.1% BSA (Fig. 2A). After treatments, supernatants were collected in order to quantify released β-hexosaminidase and released histamine, while cell viability assay was performed on adherent cells.
The release of β-hexosaminidase from stimulated-RBL-2H3 cells was measured as previously described. In a 96-wells plate, 50 µl of substrate solution [p-nitrophenyl N-acetyl-D-glucosamine 1.3 mg/ml in citrate buffer (pH 4.5)] were added to 30 µl of supernatant. The plate was incubated at 37°C, during 1 h.

In test [2] the test system is RBL-2H3 cells. Put plainly: Calcium ionophore A23187-induced RBL-2H3 degranulation (β-hexosaminidase release). The format is cell-based, rat. Conditions: Rattus norvegicus, RBL-2H3; 5 µM; maximal inhibition, mean±SEM; read-out: Degranulation inhibition (%) A23187 (decrease of β-hexosaminidase release). As for the experimental part: RBL-2H3 cells were seeded at 3.0×10^5 cells/mL in 24-wells plate (1 mL/well), and assayed after 24h at near-confluent stage (∼90%). Two different degranulation stimuli were used: calcium ionophore A23187 500 ng/mL (1 µM) and an immunologic stimulus (100 ng/mL IgE anti-DNP followed by 100 ng/mL DNP-BSA) that we refer to as IgE/antigen (Fig. 2). Both stimuli induced degranulation, which was quantified by β-hexosaminidase and histamine release. With IgE/antigen, β-hexosaminidase release (p-nitrophenolate absorbance) increased by 65.4±6.8% above basal (n = 16; P<0.001), whereas histamine increased from the basal value of 0.156±0.151 µM towards 0.521±0.186 µM (n = 10; P<0.05). With A23187, β-hexosaminidase release increased by 187±18.9% above basal (n = 12; P<0.001), whereas histamine increased towards 2.43±0.330 µM (n = 12; P<0.001). Thus, the ability of naphthoquinones to reduce β-hexosaminidase release was quantified for both stimuli, whereas effects upon histamine were only quantified with the A23187 stimulus, given the low histamine release and poor signal to noise achieved with IgE/antigen.
Before treatment with A23187, cells were incubated with individual naphthoquinones during 15 min, at 37°C. After that, A23187 1 µM was added and cells incubated for 30 min, at 37°C (Fig. 2B). Compounds were freshly diluted prior to cell exposure using EBSS supplemented with 0.1% BSA [21]. β-hexosaminidase and histamine release was quantified in supernatants, whereas the MTT cell viability assay was performed on adherent cells.
The release of β-hexosaminidase from stimulated-RBL-2H3 cells was measured as previously described. In a 96-wells plate, 50 µl of substrate solution [p-nitrophenyl N-acetyl-D-glucosamine 1.3 mg/ml in citrate buffer (pH 4.5)] were added to 30 µl of supernatant. The plate was incubated at 37°C, during 1 h. The reaction was stopped by the addition of 80 µl of NaOH 0.5 M and the reaction product, p-nitrophenolate, was measured spectrophotometrically at 405 nm, in a microplate reader (Multiskan ASCENT Thermo®).

Test [3] has as its system hyaluronidase from bovine tests (type IV-S; EC 3.2.1.35). Put plainly: Hyaluronidase inhibition, cell-free (Morgan-Elson). Conditions: 100 µM; maximal inhibition, mean±SEM. The format is biochemical. The protocol: The reaction product, N-acetyl-sugar, was quantified according Morgan-Elson colour reaction with minor modifications. The Morgan-Elson reaction was started by addition of 25 µl disodium tetraborate 0.8 M and subsequent heating in a boiling water bath during 3 min. After cooling, 750 µl p-dimethylaminobenzaldehyde (DMAB) was added and the reaction mixture was incubated at 37°C for 20 min. […] The measurement was made spectrophotometrically, at 560 nm, in a microplate reader (Multiskan ASCENT Thermo®), [24]. Sodium cromoglycate was used as a positive control for inhibition.

In test [4] the target is T1, soybean lipoxidase (Glycine max, UniProt P08170).
T1 construct: purchased Sigma-Aldrich (St. Louis, MO, USA) type V-S; host or cells: soybean (plant preparation)
T1 sequence (P08170 1-839): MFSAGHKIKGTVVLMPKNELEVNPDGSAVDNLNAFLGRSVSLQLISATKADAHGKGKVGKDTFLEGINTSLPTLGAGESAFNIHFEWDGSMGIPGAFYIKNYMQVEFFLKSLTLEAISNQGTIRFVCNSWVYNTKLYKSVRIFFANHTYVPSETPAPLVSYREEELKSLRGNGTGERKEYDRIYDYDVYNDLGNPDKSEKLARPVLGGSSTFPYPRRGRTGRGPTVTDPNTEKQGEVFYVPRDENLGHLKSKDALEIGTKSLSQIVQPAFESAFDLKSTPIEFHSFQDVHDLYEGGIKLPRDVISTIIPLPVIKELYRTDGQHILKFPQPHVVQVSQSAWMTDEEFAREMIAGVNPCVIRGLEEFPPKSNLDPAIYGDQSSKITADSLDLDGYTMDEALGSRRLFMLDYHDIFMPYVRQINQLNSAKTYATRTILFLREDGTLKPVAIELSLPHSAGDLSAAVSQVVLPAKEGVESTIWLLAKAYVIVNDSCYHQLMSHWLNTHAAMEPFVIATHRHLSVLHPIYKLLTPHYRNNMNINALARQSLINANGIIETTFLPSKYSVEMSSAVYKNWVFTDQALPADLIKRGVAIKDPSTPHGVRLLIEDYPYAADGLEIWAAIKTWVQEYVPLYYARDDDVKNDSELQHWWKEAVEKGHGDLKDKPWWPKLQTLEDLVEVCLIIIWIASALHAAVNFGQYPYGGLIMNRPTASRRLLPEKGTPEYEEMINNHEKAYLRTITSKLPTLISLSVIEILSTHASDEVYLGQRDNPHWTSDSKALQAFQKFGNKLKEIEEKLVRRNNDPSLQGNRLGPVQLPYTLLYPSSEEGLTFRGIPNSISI
Put plainly: Soybean lipoxidase inhibition, cell-free. It counts as biochemical, Glicine max (L.) Merr. Conditions: mean±SEM. As for the experimental part:
Lipoxidase catalyses the oxidation of linoleic acid to the conjugated diene, 13-hydroperoxy linoleic acid, which was measured spectrophotometrically at 234 nm on a UV/visible spectrophotometer (UNICAM Helios α). The blank was measured in a reaction mixture with 20 µl of individual naphthoquinones solution, 1 ml of phosphate buffer (pH 9) and 20 µl of soybean lipoxidase 500 U. After 5 min pre-incubation at room temperature, the reaction was started by addition of 50 µl of substrate (linoleic acid) at 2 mM in ethanol. The reaction time was 3 min.

Test [5] relates to leukotriene C4 production. Put plainly: Leukotriene C4 production in IgE/antigen-stimulated RBL-2H3 cells (EIA). The format is cell-based, rat.
The test system of test [6] is prostaglandin H2 (PGH2) synthase. Details: method as in PMID 2495300. Conditions: via ROS production; read-out: IC50 for inhibition of prostaglandin H2 (PGH2) synthase; cited from earlier work.
The subject of test [7] is leukotriene production. Details: method as in PMID 20460770. Conditions: by inhibiting 5-lipoxygenase translocation to the nuclear membrane; cited from earlier work.

Each structure is given as a SMILES string. A value given as a limit tells only on which side of the number the result lay.

A word on the IC50: it is the concentration that inhibits the measured activity by half. Turning to `CC1=CC(=O)c2ccccc2C1=O` [Menadione, menadione], the inhibition at 5 µM in test [1] and in test [2] was less than 15% in each case. For the same compound, the “Hyaluronidase inhibition (%)” value in test [3] was 23.8±6.06 (100 µM) %. The inhibition at 183.5 µM in test [4] (183.5 µM, maximal inhibition) came to 83.4 ± 6.8%. The IC50 is 128 ± 9.38 µM in test [4] (cell-free assay); 0.34 ± 0.018 µM in test [5] (Rattus norvegicus, RBL-2H3, IgE/antigen evoked release, read-out: IC50 for decrease of LTC4 levels); 5 µM in test [6]. The “Effect on leukotriene (LT) C4 levels evoked by IgE/antigen (in words)” value in test [5] (5 nM (lowest concentration tested)) was “strongly decreased LTC4 levels”; in test [5] (5 µM) it was “full inhibition”; in test [5] (5 µM, listed as menadione) it was “completely abrogated”. In test [7], the “Concentrations reported to reduce leukotriene production” value is 50 to 200 µM.
